Results taken from patent US20230183187A1, “QUINAZOLINE COMPOUNDS AS INHIBITORS OF PREMATURE TERMINATION CODONS” (CENTRE NATIONAL DE LA RECHERCHE SCIENTIFIQUE, priority 2020, published 2023).

Legend:
Type in all cases: cell-based, human
Bax mRNA (target of p53) = assay: RT-qPCR of Bax mRNA in HDQ-P1 cells; conditions: HDQ-P1, TLN68 80 μM, 48 hours, n=3
Protocol: For the analysis of mRNA levels for p53 and its transcriptional target genes, Bax, the inventors extracted total RNA from HDQ-P1 cells that had or had not been treated with G418 (400 μM) or TLN68 (80 μM) for 48 hours (RNeasy Mini Kit, Qiagen). The RNA was treated with DNAse I (RNase-free DNase) and quantified with a Nanodrop spectrometer (ThermoScientific). The absence of RNA degradation was confirmed by agarose gel electrophoresis. The first-strand cDNA was synthesized from 2 μg of total RNA, with random primers and the SuperScript II Reverse Transcriptase (Invitrogen), as recommended by the manufacturer. Quantitative PCR was then carried out on equal amounts of the various cDNAs, with a CFX96 thermocycler (Biorad), and the accumulation of products was monitored with the intercalating dye FastStart Universal SYBRGreen Master (ROX) reagent (Roche). The inventors quantified mRNA levels relative to three reference mRNAs: RPL32, Hprt1 and HMBS. In each experiment, results are expressed relative to those for untreated cells, for which the value obtained was set to 1. Relative levels of gene expression were calculated at early stages of PCR, when the amplification was exponential and might, therefore, be correlated with the initial number of copies of the transcript. […] For the quantification of each mRNA, three independent experiments (from biological replicates) were performed in triplicate. […]

HDQ-P1 cells = assay: WST1 tetrazolium viability assay, HDQ-P1; conditions: HDQ-P1, 24 h, maximal dose used
Protocol: The inventors tested the effect of TLN68 on viability of NIH3T3, HDQ-P1 and HeLa cell lines by using a tetrazolium salt which is cleaved only by metabolically active cells. Cells were treated or not with a range of TLN68 doses during 24 h and viability was measured.

nonsense mutation W1268X = assay: pAC99 dual reporter readthrough in HeLa cells, W1268X; conditions: 24 hours
Protocol: (§1) Different compounds of the invention have been tested for their ability to induce readthrough on the nonsense mutation W1268X or R213X in HeLa cells.
(§2) To this aim the inventors used the pAC99 dual reporter plasmid. This dual reporter is used to quantify stop-codon readthrough through the measurement of luciferase and beta-galactosidase (internal normalisation) activities. Readthrough levels for nonsense mutations were analysed in the presence or absence of tested molecules. Cells are seeded in a 6-well plate. The next day, cells are transfected with the reporter plasmid using the JetPei reagent (Invitrogen). The following day, they are rinsed with fresh medium, with or without readthrough inducers. Cells were harvested 24 hours later, with trypsin—EDTA (Invitrogen), lysed with Glo lysis buffer (Promega) and beta-galactosidase and luciferase activities were assayed as previously described. Readthrough efficiency was estimated by calculating the ratio of luciferase activity to beta-galactosidase activity obtained with the test construct, with normalisation against an in-frame control construct. At least five independent transfection experiments were performed for each assay.

[1] = test system: p53 (endogenous nonsense mutation R213X) in HDQ-P1 cells; assay: Western blot of full-length p53 in HDQ-P1 cells; conditions: HDQ-P1, 48 h
Protocol: HDQ-P1 cells (R213X) were treated with G418 ([…]), or the selected molecules (TLN68 50 μM, TLN1399 50 μM, TLN236 30 μM and TLN309 40 μM), for 48 h. Cells were harvested by treatment with trypsin—EDTA (Invitrogen), lysed in 350 mM NaCl, 50 mM Tris—HCl pH 7.5, 1% NP-40, and protease inhibitor cocktail (Roche) and disrupted by passage through a syringe.
Total proteins were quantified with Bradford reagent (Biorad) and extracts were denatured by incubation in Laemmli buffer for 5 minutes at 90° C. The inventors subjected 30 μg of total protein from HDQ-1 cells to SDS—PAGE in 4/10% Bis—Tris gels. Proteins were transferred onto nitrocellulose membranes, according to the manufacturer's instructions (Biorad). Membranes were saturated by overnight incubation in 5% skimmed milk powder in PBS, and incubated for 1 hour with the primary monoclonal antibody, DO-1 (N-terminal epitope mapping between amino acid residues 11 and 25 of p53; Santa Cruz Biotechnologies, 1/400) or a monoclonal antibody against mouse actin (Millipore, 1/2000). After three washes in PBS supplemented with 0.1% Tween, the membranes were incubated with the secondary antibody [horseradish peroxidase-conjugated anti-mouse IgG ( 1/2500)] for 45 minutes. The membranes were washed five times and chemiluminescence was detected with ECL Prime Western Blotting Detection Reagents (Amersham, GE Healthcare). The signal was quantified with ImageJ software.

nonsense mutation R213X = assay: pAC99 dual reporter readthrough in HeLa cells, R213X; conditions: 24 hours
Protocol: as §1, §2

Cc1nc(NC(=N)N)nc2ccccc12 [TLN68]
induction of bax mRNA level relative to untreated (Bax mRNA (target of p53)): 3 fold | viable cells (HDQ-P1 cells): 70% | Inducting factor of readthrough as compared to untreated cells (measured on nonsense mutation W1268X) (nonsense mutation W1268X): 9 | level of induction of full-length p53 compared with G418 ([1]; G418 10 and 20 mM): even higher to the one obtained in presence of G418 | production of the full-length p53 (western blot) ([1]; TLN68 50 μM, TLN236 30 μM, TLN309 40 μM): stimulate the production of the full-length p53 | Inducting factor of readthrough as compared to untreated cells (measured on nonsense mutation R213X) (nonsense mutation R213X): 14
